# Publication PMC7997182, “Unravelling the Dermatological Potential of the Brown Seaweed Carpomitra costata” (Marine Drugs, 2021)
# Legend:
# hyaluronidase = target: T1, hyaluronidase; assay: hyaluronic acid turbidity, absorbance […] nm; assay type: biochemical; settings: 37 °C; hyaluronic acid substrate pH 5.35; reference compound; printed interval does not contain the value
# T1 construct: gene SPAM1
# collagenase (type IV) = target: T2, collagenase (type IV); assay: fluorogenic EnzChek gelatinase/collagenase kit; assay type: biochemical; settings: per kit instructions; positive control
# T2 construct: gene colG; known from the kit
# Description: fluorogenic EnzChek gelatinase/collagenase kit on collagenase (type IV)
smiles,measurement,setting,value
"O=C(O[C@@H]1Cc2c(O)cc(O)cc2O[C@@H]1c1cc(O)c(O)c(O)c1)c1cc(O)c(O)c(O)c1 [EGCG, epigallocatechin gallate]",Hyaluronidase,hyaluronidase,119.1 (126.1–320.4) µg/mL
same,Collagenase,collagenase (type IV),4.8 (4.1–5.5) µg/mL
